Laboratory results: the NIST ThermoML archive (doi:10.1021/je5010214)
Numbers after ± are expanded uncertainties.

Conditions: Liquid, Vibrating tube method

CCCCCCC [heptane]
Conditions	mass density [kg/m3]
343.15 K, 47908 kPa	688 ± 1
343.15 K, 50059 kPa	689.668 ± 1.1
343.15 K, 52026 kPa	691.103 ± 1.1
343.15 K, 59944 kPa	696.69 ± 1.1
343.15 K, 61966 kPa	697.921 ± 1.1
343.15 K, 65070 kPa	699.939 ± 1.1
343.15 K, 66059 kPa	700.533 ± 1.2
343.16 K, 34034 kPa	676.976 ± 0.96
343.16 K, 54918 kPa	693.158 ± 1.1
343.16 K, 57986 kPa	695.23 ± 1.1
348.15 K, 100.3 kPa	636.109 ± 0.82
348.15 K, 462.2 kPa	636.505 ± 0.82
348.15 K, 859.8 kPa	637.192 ± 0.82
348.15 K, 974.2 kPa	637.393 ± 0.82
348.15 K, 1974.9 kPa	638.781 ± 0.82
348.15 K, 3051.1 kPa	640.295 ± 0.82
348.15 K, 5094 kPa	643.002 ± 0.83
348.15 K, 10025 kPa	649.256 ± 0.85
348.15 K, 14792 kPa	654.622 ± 0.87
348.15 K, 20111 kPa	660.386 ± 0.89
348.15 K, 22163 kPa	662.539 ± 0.9
348.15 K, 28080 kPa	668.108 ± 0.93
348.15 K, 30149 kPa	670.002 ± 0.94
348.15 K, 32161 kPa	671.799 ± 0.95
348.15 K, 32935 kPa	672.452 ± 0.96
348.15 K, 33959 kPa	673.504 ± 0.96
348.15 K, 35045 kPa	674.428 ± 0.97
348.15 K, 37937 kPa	676.834 ± 0.99
348.15 K, 40026 kPa	678.502 ± 1
348.15 K, 45051 kPa	682.511 ± 1
348.15 K, 47915 kPa	684.825 ± 1
348.15 K, 49950 kPa	686.336 ± 1.1
348.15 K, 52167 kPa	688.088 ± 1.1
348.15 K, 55022 kPa	690.168 ± 1.1
348.15 K, 57945 kPa	692.261 ± 1.1
348.15 K, 62063 kPa	695.106 ± 1.1
348.15 K, 64942 kPa	696.91 ± 1.2
348.15 K, 66153 kPa	697.788 ± 1.2
348.16 K, 291.7 kPa	636.475 ± 0.82
348.16 K, 7050.2 kPa	645.632 ± 0.84
348.16 K, 9003.2 kPa	648.038 ± 0.84
348.16 K, 12187 kPa	651.83 ± 0.86
348.16 K, 17899 kPa	658.098 ± 0.88
348.16 K, 25100 kPa	665.329 ± 0.92
348.16 K, 32942 kPa	672.463 ± 0.96
348.16 K, 42066 kPa	680.23 ± 1
348.16 K, 60030 kPa	693.748 ± 1.1
353.15 K, 100.5 kPa	631.649 ± 0.82
353.15 K, 336 kPa	631.995 ± 0.82
353.15 K, 572.6 kPa	632.233 ± 0.82
353.15 K, 926 kPa	632.774 ± 0.82
353.15 K, 1016.4 kPa	632.95 ± 0.82
353.15 K, 2992.1 kPa	635.919 ± 0.82
353.15 K, 4963.9 kPa	638.644 ± 0.83
353.15 K, 7000.9 kPa	641.284 ± 0.84
353.15 K, 9062.3 kPa	643.911 ± 0.84
353.15 K, 10005 kPa	645.176 ± 0.85
353.15 K, 12128 kPa	647.788 ± 0.86
353.15 K, 14954 kPa	651.028 ± 0.87
353.15 K, 17977 kPa	654.406 ± 0.88
353.15 K, 19937 kPa	656.492 ± 0.89
353.15 K, 21894 kPa	658.507 ± 0.9
353.15 K, 24908 kPa	661.562 ± 0.92
353.15 K, 27850 kPa	664.482 ± 0.93
353.15 K, 29936 kPa	666.345 ± 0.94
353.15 K, 31876 kPa	668.022 ± 0.95
353.15 K, 32911 kPa	668.934 ± 0.96
353.15 K, 32961 kPa	669.075 ± 0.96
353.15 K, 34945 kPa	670.985 ± 0.97
353.15 K, 37913 kPa	673.509 ± 0.99
353.15 K, 40143 kPa	675.336 ± 1
353.15 K, 42067 kPa	677.003 ± 1
353.15 K, 45002 kPa	679.292 ± 1
353.15 K, 48029 kPa	681.775 ± 1.1
353.15 K, 50145 kPa	683.478 ± 1.1
353.15 K, 52082 kPa	685.052 ± 1.1
353.15 K, 55132 kPa	687.213 ± 1.1
353.15 K, 57980 kPa	689.013 ± 1.1
353.15 K, 60098 kPa	690.731 ± 1.1
353.15 K, 65063 kPa	694.154 ± 1.2
353.16 K, 2113.4 kPa	634.631 ± 0.82
353.16 K, 33964 kPa	670.126 ± 0.97
353.16 K, 62042 kPa	692.223 ± 1.1
353.16 K, 66024 kPa	694.802 ± 1.2
358.15 K, 100.4 kPa	626.935 ± 0.82
358.15 K, 264.1 kPa	627.168 ± 0.82
358.15 K, 508.4 kPa	627.316 ± 0.82
358.15 K, 926.8 kPa	628.098 ± 0.82
358.15 K, 1013.9 kPa	628.327 ± 0.82
358.15 K, 3021.2 kPa	631.365 ± 0.82
358.15 K, 4930 kPa	634.077 ± 0.83
358.15 K, 10073 kPa	641.066 ± 0.85
358.15 K, 12137 kPa	643.735 ± 0.86
358.15 K, 14905 kPa	646.944 ± 0.87
358.15 K, 17965 kPa	650.491 ± 0.88
358.15 K, 22175 kPa	654.965 ± 0.91
358.15 K, 25059 kPa	657.993 ± 0.92
358.15 K, 28035 kPa	660.974 ± 0.94
358.15 K, 30002 kPa	662.532 ± 0.95
358.15 K, 31978 kPa	664.488 ± 0.96
358.15 K, 32793 kPa	665.093 ± 0.96
358.15 K, 33039 kPa	665.404 ± 0.96
358.15 K, 33850 kPa	666.525 ± 0.97
358.15 K, 35026 kPa	667.567 ± 0.98
358.15 K, 37872 kPa	669.996 ± 0.99
358.15 K, 40037 kPa	671.748 ± 1
358.15 K, 42100 kPa	673.454 ± 1
358.15 K, 47958 kPa	678.424 ± 1.1
358.15 K, 50038 kPa	680.129 ± 1.1
358.15 K, 52081 kPa	681.85 ± 1.1
358.15 K, 55073 kPa	684.059 ± 1.1
358.15 K, 57918 kPa	685.685 ± 1.1
358.15 K, 60043 kPa	687.68 ± 1.1
358.15 K, 62066 kPa	689.111 ± 1.1
358.15 K, 64986 kPa	691.283 ± 1.2
358.15 K, 66109 kPa	692.023 ± 1.2
358.16 K, 2083.9 kPa	629.903 ± 0.82
358.16 K, 6993.5 kPa	637.086 ± 0.84
358.16 K, 9030.2 kPa	639.755 ± 0.84
358.16 K, 20162 kPa	652.87 ± 0.89
358.16 K, 45054 kPa	675.954 ± 1
363.15 K, 104.1 kPa	622.138 ± 0.82
363.15 K, 334 kPa	622.474 ± 0.82
363.15 K, 601.7 kPa	622.649 ± 0.82
363.15 K, 892.9 kPa	623.267 ± 0.82
363.15 K, 1034.7 kPa	623.668 ± 0.82
363.15 K, 1986 kPa	625.081 ± 0.82
363.15 K, 2940.4 kPa	626.678 ± 0.82
363.15 K, 4979.2 kPa	629.757 ± 0.83
363.15 K, 9959.5 kPa	636.563 ± 0.85
363.15 K, 11971 kPa	639.421 ± 0.86
363.15 K, 14936 kPa	642.887 ± 0.87
363.15 K, 17973 kPa	646.544 ± 0.89
363.15 K, 19940 kPa	648.708 ± 0.9
363.15 K, 24872 kPa	654.024 ± 0.92
363.15 K, 27993 kPa	657.078 ± 0.94
363.15 K, 30062 kPa	659.006 ± 0.95
363.15 K, 31961 kPa	660.63 ± 0.96
363.15 K, 33033 kPa	661.606 ± 0.97
363.15 K, 33053 kPa	661.633 ± 0.97
363.15 K, 34000 kPa	663.017 ± 0.97
363.15 K, 35028 kPa	664.03 ± 0.98
363.15 K, 37919 kPa	666.495 ± 1
363.15 K, 39916 kPa	668.059 ± 1
363.15 K, 42016 kPa	669.917 ± 1
363.15 K, 47947 kPa	675.063 ± 1.1
363.15 K, 50050 kPa	676.807 ± 1.1
363.15 K, 52023 kPa	678.457 ± 1.1
363.15 K, 54940 kPa	680.815 ± 1.1
363.15 K, 57916 kPa	682.78 ± 1.1
363.15 K, 59980 kPa	684.625 ± 1.1
363.15 K, 62043 kPa	686.168 ± 1.2
363.15 K, 64924 kPa	688.267 ± 1.2
363.15 K, 66088 kPa	689.169 ± 1.2
363.16 K, 6920.2 kPa	632.642 ± 0.84
363.16 K, 8964.8 kPa	635.395 ± 0.85
363.16 K, 21933 kPa	650.806 ± 0.91
363.16 K, 44987 kPa	672.551 ± 1
